ChEMBL document CHEMBL1201862, “PubChem BioAssay data set” (2004)
The source made the active and inactive calls.

Key:
[1] = molecular target: Cyclin-dependent kinase 5/CDK5 activator 1 (Homo sapiens, UniProt Q00535); assay: CDK5/p35 kinase inhibitors, dose response, biochemical, cherry-picked samples, set 2 (AID 504545)
[2] = molecular target: T1, Kappa-type opioid receptor (Homo sapiens, UniProt P41145); format: functional
Beta-galactosidase = Beta-galactosidase (Escherichia coli, UniProt Q8VNN2); format: functional
[3] = molecular target: T1, Kappa-type opioid receptor; format: functional; remark: listed apart in the source
[4] = Luminescence Cell-Based Dose Retest to Confirm Inhibitors of Cancer Stem Cells. [Related pubchem assays (depositor defined):AID2717, AID2721]; format: functional; conditions: Homo sapiens
[5] = molecular target: Neurotensin receptor type 1 (Homo sapiens, UniProt P30989); format: functional;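 also: Image-based confirmatory dose-response assay measuring agonist activity at NTR1; NTR1-expressing U2OS osteosarcoma cells imaged for beta-arrestin GFP spot formation; agonist potency where compounds increase beta-arrestin recruitment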
[6] = inhibitors of firefly luciferase expression or activity, dose response, H4 neuroglioma cells, luminescence (AID 1990); format: functional, cell-based
[7] = Luminescence Cell-Based Dose Response HTS to Identify Inhibitors of 5'UTR Stem-Loop Driven Prion Protein mRNA Translation in H4 Neuroglioblastoma Cells. [Related pubchem assays: 1827 (Project Summary), 1813 (Primary HTS)]; format: functional
[8] = cytotoxicity in HEK-293T cells, dose response, cytotoxicity control for BCR NF-kB inhibitor project, luminescence, B-cell screen hits (AID 489021); format: functional, cell-based;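 also: HEK-293T cells carrying an NF-kB luciferase reporter; cells exposed to compound for about 14 hours before viability readout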
[9] = Luminescence Cell-Based Dose Response HTS to Identify Activators of Luciferase Translation or Activity in H4-C Neuroglioblastoma Cells. [Related pubchem assays: 1829 (Project Summary), 1814 (Primary HTS)]; format: functional
[10] = Luminescence Cell-Based Dose Retest to Confirm Activators of 5'UTR Stem-Loop Driven Alpha-Synuclein mRNA Translation in H4 Neuroglioblastoma Cells. [Related pubchem assays (depositor defined):AID1813, AID1829]; format: functional
[11] = Luminescence Cell-Based Dose Response HTS to Identify Activators of 5'UTR Stem-Loop Driven Prion Protein mRNA Translation in H4-C Neuroglioblastoma Cells. [Related pubchem assays: 1829 (Project Summary), 1814 (Primary HTS)]; format: functional
[12] = Luminescence Cell-Based Dose Confirmation HTS to Identify Activators of 5'UTR Stem-Loop Driven Alpha-Synuclein mRNA Translation in H4 Neuroglioblastoma Cells. [Related pubchem assays: 1829 (Project Summary), 1814 (Primary HTS)]; format: functional
[13] = Luminescence Cell-Based Dose Response HTS to Identify Activators of Luciferase Translation or Activity in H4 […] Cells. [Related pubchem assays: 1829 (Project Summary), 1814 (Primary HTS)]; format: functional
H4 = assay: Luminescence Cell-Based Dose Response HTS to Identify Activators of 5'UTR Stem-Loop Driven Prion Protein mRNA Translation in H4 Neuroglioblastoma Cells. [Related pubchem assays: 1829 (Project Summary), 1814 (Primary HTS)]; format: functional; conditions: Homo sapiens
[14] = molecular target: T2, Heat shock factor protein 1 (Mus musculus, UniProt P38532); assay: HSF1 potentiators in luciferase reporter cells, confirmation, cell-based, NIH3T3, luminescence, dose retest (AID 435004); format: functional;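 also: stress induced by proteasome inhibitor MG132 added 30 min after compound; luciferase reporter driven by HSF1 response element in NIH3T3 cells; actives raise luminescence as potentiators of the MG132 stress response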
T2 sequence (P38532 whole entry): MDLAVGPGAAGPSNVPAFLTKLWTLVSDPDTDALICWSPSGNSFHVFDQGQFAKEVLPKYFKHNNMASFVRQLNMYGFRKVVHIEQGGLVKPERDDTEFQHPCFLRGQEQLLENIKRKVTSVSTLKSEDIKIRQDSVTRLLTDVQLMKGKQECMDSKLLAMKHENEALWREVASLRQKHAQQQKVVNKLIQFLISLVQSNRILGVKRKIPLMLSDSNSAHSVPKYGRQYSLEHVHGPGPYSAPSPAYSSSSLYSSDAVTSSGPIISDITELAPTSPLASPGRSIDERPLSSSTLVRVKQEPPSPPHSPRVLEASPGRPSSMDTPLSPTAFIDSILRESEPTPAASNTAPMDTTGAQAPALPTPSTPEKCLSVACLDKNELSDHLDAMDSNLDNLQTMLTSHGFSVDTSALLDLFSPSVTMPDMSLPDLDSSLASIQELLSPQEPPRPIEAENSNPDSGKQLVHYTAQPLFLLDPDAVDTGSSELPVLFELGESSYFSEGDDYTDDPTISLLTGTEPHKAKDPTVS

[15] = THP-1 cell cytotoxicity, dose response, cytotoxicity control for non-replicating M. tuberculosis project (AID 489025); format: functional
[16] = molecular target: Acyl-homoserine lactone acylase PvdQ (Pseudomonas aeruginosa (strain LESB58), UniProt Q9I194); assay: P. aeruginosa PvdQ acylase inhibitors, dose response, biochemical, fluorescence, plate reader and imaging, cherry-picks (AID 493231)
cells = format: functional
[17] = molecular target: T3, Polyadenylate-binding protein 1 (Homo sapiens, UniProt P11940); assay: PABP1 MLLE–PAM2 interaction inhibitors, dose response, miRNA deadenylation inhibitor project, biochemical, fluorescence polarization, Cy5-PAM2 peptide, secondary (AID 602260); format: functional; conditions: read-out: IC50_Mean
[18] = molecular target: T3, Polyadenylate-binding protein 1; assay: PABP1 MLLE–PAM2 binding inhibitor potency, dose response, biochemical, fluorescence polarization, FITC-PAM2 peptide (AID 602259); format: functional; conditions: read-out: IC50_Mean
Aspartyl aminopeptidase = molecular target: T4, Aspartyl aminopeptidase (Plasmodium falciparum 3D7, UniProt Q8I2J3)
T4 sequence (Q8I2J3 whole entry): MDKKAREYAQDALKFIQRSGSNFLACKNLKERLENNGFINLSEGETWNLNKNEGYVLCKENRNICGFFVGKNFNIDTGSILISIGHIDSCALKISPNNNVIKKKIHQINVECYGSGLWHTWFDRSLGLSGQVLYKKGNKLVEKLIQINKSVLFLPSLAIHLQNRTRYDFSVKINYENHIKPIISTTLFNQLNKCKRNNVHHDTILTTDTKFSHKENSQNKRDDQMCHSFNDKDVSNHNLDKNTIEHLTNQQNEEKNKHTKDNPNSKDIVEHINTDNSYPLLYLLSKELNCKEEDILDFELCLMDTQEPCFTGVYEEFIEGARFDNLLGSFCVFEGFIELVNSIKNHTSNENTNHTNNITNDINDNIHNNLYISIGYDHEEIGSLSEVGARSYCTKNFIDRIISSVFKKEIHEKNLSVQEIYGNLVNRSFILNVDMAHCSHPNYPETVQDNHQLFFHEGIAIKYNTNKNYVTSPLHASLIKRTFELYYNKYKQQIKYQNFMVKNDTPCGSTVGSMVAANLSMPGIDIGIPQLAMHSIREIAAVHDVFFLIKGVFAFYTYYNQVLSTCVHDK

Procathepsin L = Procathepsin L (Homo sapiens, UniProt P07711)
Cytochrome P450 2C9 = Cytochrome P450 2C9 (Homo sapiens, UniProt P11712); conditions: Potency
Cytochrome P450 2D6 = Cytochrome P450 2D6 (Homo sapiens, UniProt P10635); assay: qHTS Assay for Inhibitors and Substrates of Cytochrome P450 2D6. [Related pubchem assays: 410 ]; format: ADME; conditions: read-out: Potency
[19] = microbe, parasite or virus in culture; format: functional; conditions: Mycobacterium tuberculosis
[20] = molecular target: T5, Microphthalmia-associated transcription factor (Homo sapiens, UniProt O75030); assay: TRPM1 promoter luciferase signal decrease, dose response, MITF inhibitor project, cell-based, SK-MEL-5, cherry-picked, set 3 (AID 493073); format: functional
T5 sequence (O75030 whole entry): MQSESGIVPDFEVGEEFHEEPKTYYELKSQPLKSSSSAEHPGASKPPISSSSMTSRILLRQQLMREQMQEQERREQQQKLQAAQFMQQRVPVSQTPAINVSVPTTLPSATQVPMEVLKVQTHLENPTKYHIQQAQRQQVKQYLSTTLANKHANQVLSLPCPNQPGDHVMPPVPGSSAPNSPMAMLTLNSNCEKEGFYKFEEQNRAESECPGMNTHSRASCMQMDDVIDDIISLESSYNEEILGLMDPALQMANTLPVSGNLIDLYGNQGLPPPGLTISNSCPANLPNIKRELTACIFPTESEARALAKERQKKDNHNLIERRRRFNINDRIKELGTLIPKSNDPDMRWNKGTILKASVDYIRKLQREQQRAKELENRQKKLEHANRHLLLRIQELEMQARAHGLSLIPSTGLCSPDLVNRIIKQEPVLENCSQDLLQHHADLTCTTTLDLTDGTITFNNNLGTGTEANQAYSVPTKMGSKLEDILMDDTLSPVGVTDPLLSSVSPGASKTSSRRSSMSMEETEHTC

HeLa = assay: HeLa cell cytotoxicity, dose response, cytotoxicity control, 24 h, cherry-picked samples (AID 504726); format: functional, cell-based; conditions: Homo sapiens;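 also: potency for cytotoxicity as loss of luminescence signal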
Caspase-6 = molecular target: T6, Caspase-6 (Homo sapiens, UniProt P55212); assay: human caspase-6 inhibitors, dose response, biochemical, VEID-R110 fluorescence, cherry-pick (AID 720632)
T6 sequence (P55212 whole entry): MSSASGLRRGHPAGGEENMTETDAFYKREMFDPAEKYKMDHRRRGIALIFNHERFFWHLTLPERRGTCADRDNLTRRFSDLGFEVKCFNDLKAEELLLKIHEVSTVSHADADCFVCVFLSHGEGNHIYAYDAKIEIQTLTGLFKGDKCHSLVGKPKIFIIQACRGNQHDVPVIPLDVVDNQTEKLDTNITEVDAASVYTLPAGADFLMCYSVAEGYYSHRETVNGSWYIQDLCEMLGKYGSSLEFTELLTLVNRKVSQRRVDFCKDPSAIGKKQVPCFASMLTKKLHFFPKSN

[21] = molecular target: Eukaryotic translation initiation factor 4H (Homo sapiens, UniProt Q15056); assay: eIF4H inhibition in translation initiation, SAR follow-up (AID 435011); format: functional
[22] = molecular target: T3, Polyadenylate-binding protein 1; assay: PABP inhibition in translation initiation, SAR follow-up (AID 435018); format: functional
[23] = molecular target: T7, Rac GTPase-activating protein 1 (Homo sapiens, UniProt Q9H0H5); assay: MgcRacGAP GTPase-activating activity inhibitors, confirmation, biochemical, ADP Hunter fluorescence, primary and confirmatory (AID 624330); format: functional
T7 sequence (Q9H0H5 whole entry): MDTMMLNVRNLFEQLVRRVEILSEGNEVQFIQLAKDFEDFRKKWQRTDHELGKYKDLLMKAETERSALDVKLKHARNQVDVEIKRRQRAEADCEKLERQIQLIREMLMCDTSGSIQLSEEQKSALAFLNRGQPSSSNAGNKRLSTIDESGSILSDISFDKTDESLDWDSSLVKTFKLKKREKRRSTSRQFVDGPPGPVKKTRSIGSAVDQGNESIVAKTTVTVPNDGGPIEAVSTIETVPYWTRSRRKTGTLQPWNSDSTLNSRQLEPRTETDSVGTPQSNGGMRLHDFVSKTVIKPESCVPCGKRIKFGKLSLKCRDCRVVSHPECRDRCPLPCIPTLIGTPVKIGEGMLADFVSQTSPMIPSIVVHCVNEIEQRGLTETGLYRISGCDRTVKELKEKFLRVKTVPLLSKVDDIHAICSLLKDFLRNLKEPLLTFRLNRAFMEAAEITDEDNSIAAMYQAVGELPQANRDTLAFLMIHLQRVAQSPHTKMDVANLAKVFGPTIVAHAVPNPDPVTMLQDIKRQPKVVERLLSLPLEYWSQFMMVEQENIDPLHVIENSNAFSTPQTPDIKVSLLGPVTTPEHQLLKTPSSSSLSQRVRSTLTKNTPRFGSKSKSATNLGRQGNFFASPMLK

T3 sequence (P11940 whole entry): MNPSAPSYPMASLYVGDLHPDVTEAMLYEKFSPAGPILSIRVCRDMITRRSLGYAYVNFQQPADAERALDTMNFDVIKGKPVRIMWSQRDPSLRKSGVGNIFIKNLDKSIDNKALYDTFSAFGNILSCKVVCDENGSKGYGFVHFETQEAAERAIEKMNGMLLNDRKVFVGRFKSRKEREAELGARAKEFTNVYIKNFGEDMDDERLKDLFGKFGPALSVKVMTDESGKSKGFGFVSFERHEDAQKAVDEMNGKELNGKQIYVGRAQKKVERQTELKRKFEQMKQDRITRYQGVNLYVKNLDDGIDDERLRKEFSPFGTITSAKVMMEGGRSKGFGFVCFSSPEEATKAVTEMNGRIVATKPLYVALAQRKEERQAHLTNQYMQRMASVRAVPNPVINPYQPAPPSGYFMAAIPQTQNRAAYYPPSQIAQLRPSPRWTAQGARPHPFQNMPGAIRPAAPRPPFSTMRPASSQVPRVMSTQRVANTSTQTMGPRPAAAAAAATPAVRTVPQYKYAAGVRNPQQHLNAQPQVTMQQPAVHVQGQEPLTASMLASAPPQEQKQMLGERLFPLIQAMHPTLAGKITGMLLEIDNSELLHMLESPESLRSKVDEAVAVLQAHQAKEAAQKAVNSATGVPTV
T1 sequence (P41145 whole entry): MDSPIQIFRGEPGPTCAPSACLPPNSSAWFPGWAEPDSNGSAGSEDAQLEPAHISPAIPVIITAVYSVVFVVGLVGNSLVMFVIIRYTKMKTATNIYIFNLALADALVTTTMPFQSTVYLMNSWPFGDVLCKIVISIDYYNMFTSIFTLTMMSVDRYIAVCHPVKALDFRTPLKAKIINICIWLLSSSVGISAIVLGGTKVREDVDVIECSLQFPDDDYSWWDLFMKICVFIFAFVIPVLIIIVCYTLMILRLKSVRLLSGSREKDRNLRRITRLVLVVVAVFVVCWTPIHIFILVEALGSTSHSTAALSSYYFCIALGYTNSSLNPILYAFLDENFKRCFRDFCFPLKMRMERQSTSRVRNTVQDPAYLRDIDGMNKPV
Sequence of Acyl-homoserine lactone acylase PvdQ (Q9I194 24-193 limits assumed): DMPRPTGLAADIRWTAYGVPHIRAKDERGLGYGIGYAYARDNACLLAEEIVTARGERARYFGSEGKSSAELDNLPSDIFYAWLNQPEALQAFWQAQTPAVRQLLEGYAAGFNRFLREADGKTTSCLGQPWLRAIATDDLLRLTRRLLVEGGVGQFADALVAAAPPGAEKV
Sequence of Acyl-homoserine lactone acylase PvdQ (Q9I194 217-762 limits assumed): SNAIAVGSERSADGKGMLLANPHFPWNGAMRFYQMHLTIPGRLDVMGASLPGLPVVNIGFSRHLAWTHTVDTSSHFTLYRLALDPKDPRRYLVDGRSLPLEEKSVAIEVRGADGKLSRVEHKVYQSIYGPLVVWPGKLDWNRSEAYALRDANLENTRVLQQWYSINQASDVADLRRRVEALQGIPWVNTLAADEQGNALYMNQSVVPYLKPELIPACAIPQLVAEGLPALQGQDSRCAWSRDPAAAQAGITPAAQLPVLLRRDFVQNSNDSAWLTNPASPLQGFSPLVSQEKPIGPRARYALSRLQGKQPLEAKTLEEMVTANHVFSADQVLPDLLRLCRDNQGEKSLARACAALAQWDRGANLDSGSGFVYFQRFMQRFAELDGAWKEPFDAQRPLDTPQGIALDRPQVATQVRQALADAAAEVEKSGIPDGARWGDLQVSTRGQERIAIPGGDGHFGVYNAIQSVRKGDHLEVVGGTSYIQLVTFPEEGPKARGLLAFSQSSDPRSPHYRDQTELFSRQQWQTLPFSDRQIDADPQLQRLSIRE
Sequence of Cyclin-dependent kinase 5/CDK5 activator 1 (Q00535 whole entry): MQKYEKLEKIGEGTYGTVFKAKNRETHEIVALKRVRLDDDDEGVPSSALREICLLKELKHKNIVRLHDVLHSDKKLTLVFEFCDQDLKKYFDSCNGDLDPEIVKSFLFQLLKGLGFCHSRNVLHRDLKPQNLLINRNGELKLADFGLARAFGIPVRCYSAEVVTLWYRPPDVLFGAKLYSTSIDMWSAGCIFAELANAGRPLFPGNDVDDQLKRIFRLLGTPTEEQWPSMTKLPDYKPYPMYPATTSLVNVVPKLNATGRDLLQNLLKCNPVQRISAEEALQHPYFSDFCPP
Sequence of Cyclin-dependent kinase 5/CDK5 activator 1 (Q15078 whole entry, further chain): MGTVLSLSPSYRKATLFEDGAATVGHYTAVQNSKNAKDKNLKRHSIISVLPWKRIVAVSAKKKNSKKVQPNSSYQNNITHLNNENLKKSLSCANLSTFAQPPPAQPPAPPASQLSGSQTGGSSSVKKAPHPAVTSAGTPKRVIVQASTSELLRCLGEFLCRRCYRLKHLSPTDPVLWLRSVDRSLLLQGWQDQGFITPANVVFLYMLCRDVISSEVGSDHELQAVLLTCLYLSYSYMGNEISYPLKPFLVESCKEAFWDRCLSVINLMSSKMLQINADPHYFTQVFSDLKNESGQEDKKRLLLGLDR
Sequence of Neurotensin receptor type 1 (P30989 whole entry): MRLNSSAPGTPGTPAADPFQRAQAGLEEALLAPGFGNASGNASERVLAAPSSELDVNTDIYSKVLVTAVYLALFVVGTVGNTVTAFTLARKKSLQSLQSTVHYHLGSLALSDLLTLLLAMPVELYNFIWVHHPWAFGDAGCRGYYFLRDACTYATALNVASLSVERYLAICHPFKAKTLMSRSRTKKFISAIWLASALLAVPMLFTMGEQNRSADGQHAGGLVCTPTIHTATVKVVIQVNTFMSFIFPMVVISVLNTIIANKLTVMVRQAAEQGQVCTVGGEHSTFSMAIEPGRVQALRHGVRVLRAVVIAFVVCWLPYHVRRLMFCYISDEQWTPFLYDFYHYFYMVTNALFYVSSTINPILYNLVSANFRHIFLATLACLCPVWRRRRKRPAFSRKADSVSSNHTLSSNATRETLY
Sequence of Cytochrome P450 2C9 (P11712 whole entry): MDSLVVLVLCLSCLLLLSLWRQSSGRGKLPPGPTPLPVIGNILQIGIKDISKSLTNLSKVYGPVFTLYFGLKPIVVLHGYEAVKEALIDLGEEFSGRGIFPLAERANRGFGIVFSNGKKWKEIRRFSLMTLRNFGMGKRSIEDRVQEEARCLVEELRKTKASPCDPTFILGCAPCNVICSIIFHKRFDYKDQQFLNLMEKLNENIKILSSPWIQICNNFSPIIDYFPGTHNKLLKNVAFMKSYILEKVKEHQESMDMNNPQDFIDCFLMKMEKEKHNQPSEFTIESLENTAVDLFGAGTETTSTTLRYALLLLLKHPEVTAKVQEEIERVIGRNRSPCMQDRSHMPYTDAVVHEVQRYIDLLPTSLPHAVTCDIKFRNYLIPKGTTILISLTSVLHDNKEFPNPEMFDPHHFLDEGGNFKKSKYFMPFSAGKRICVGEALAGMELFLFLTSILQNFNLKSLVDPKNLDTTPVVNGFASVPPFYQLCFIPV
Sequence of Cytochrome P450 2D6 (P10635 whole entry): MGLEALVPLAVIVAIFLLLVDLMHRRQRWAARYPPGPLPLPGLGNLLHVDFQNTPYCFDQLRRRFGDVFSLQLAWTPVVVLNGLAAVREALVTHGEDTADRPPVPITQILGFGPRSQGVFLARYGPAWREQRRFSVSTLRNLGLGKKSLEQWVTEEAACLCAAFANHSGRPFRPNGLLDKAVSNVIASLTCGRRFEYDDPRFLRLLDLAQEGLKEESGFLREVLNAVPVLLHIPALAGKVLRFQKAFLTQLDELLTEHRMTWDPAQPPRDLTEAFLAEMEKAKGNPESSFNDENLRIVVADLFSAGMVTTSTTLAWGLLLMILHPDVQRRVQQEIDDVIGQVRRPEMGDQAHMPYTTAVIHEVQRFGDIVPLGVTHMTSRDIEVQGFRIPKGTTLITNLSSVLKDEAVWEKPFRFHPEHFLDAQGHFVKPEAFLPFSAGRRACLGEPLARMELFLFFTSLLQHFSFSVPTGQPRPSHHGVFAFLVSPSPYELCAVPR
Sequence of Procathepsin L (P07711 whole entry): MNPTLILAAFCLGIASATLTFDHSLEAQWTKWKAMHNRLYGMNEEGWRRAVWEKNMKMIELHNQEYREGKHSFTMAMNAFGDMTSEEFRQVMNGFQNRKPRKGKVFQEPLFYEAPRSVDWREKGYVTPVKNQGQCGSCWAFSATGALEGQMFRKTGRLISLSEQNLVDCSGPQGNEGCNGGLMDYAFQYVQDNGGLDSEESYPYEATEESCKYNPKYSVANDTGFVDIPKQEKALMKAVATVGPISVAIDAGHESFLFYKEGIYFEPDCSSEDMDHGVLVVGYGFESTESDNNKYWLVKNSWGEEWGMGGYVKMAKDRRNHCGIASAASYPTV

Nc1nc(Nc2ccccc2)nc(NCCO)c1[N+](=O)[O-]
AC50 [1]: 17.5 µM (active)

COc1ccc(C)c(-n2c(=O)n(Cc3ccccc3)c(=O)c3[nH]cnc32)c1
IC50 [2]: 6.84 µM (active) | EC50 (Beta-galactosidase): 9.23 µM (active) | IC50 [3]: > 32 µM

O=C(Oc1ccc(Br)cc1C(=O)/C=C/c1ccccc1F)c1ccco1
AC50 [4]: 5.03 µM (active) | EC50 [5]: 15.9 µM (active)

Cc1nc2cc(-c3ccccc3)nn2c(C)c1CCC(=O)NCc1ccco1
EC50 [6]: 17.6 µM (active) | EC50 [7]: 9.65 µM (active) | IC50 [8]: > 80 µM (inactive)

Cc1csc2nc(CCNS(=O)(=O)c3cccs3)cn12
EC50 [9]: 3.07 µM (active) | EC50 [10]: 1.85 µM (active) | EC50 [11]: 13.1 µM (active) | EC50 [12]: 2.18 µM (active) | EC50 [13]: 45.9 µM (active) | EC50 (H4): 96.8 µM (active) | EC50 [14]: 254 µM (active)

Cc1ccc(O)c(C(=O)c2cc(C#N)c(=O)n(-c3nccs3)c2)c1
CC50 [15]: 29.6 µM (active)

CCOCC(=O)Nc1nc2ccc(C)cc2s1
AC50 [16]: 24 µM (active) | IC50 (cells): 34.5 µM (active) | IC50 [17]: > 66 µM (inactive) | IC50 [18]: > 66 µM (inactive)

O=C(NCCc1ccc(O)c(O)c1)C1COc2ccccc2O1 (stereo not drawn)
IC50 (Aspartyl aminopeptidase): 2.11 µM (active) | IC50 (Procathepsin L): > 59.6 µM (not active) | EC50 [14]: 28.5 µM (active)

CCOC(=O)OCC1OC(C#Cc2ccc(C(C)(C)C)cc2)C=CC1OC(=O)OCC (stereo not drawn)
AC50 (Cytochrome P450 2C9): 0.0025 µM (inconclusive)

CC(C)C[C@@H](CC(=O)N[C@H](CC(=O)N[C@@H]1CCNC[C@H]1C(=O)N[C@H](CC(=O)N[C@@H](CCC(=O)O)CC(=O)O)CC(C)C)C(C)C)NC(=O)[C@@H]1CCCC[C@H]1N
AC50 (Cytochrome P450 2D6): 39.8 µM (inconclusive) | AC50 (Cytochrome P450 2C9): 39.8 µM (inconclusive)

O=[N+]([O-])c1ccc(Sc2cc[n+]([O-])c3ccccc23)c([N+](=O)[O-])c1
CC50 [19]: 12.1 µM (active) | AC50 [20]: 5.92 µM (active) | IC50 [8]: > 80 µM (inactive)

O=C(COC(=O)c1ccc([N+](=O)[O-])o1)NCCCc1ccccc1
AC50 (HeLa): > 350 µM (inactive) | AC50 (Caspase-6): 35.2 µM (active)

COc1cc2ccccc2ccc1=NO
AC50 [1]: 34.7 µM (active)

COC(=O)c1[nH]c2ccccc2c1Sc1ccccc1
IC50 [21]: > 100 µM (inactive) | IC50 [22]: > 100 µM (inactive)

O=C(COc1ccccc1)NCC(=O)N/N=C/c1ccc(O)cc1O
EC50 [5]: > 40 µM (inactive) | IC50 [23]: 69.4 µM (active)

CO/N=C/c1cn(-c2ccc(Cl)cc2)nn1
AC50 [16]: 5.97 µM (active)
